Source: patent US20170100320A1, “COMPOSITION FOR EXTERNAL USE SKIN PREPARATION, CONTAINING THIOREDOXIN” (Amorepacific Corporation, priority 2012, published 2017)

Assays:
Assay type in all cases: cell-based
[1] = biological target: T1, 5α-reductase in HEK293-5αR2 cells (Homo sapiens, UniProt P31213); experiment: Inhibition of 5α-reductase activity ([14C]testosterone to [14C]dihydrotestosterone conversion); conditions: 2 hours incubation at 37° C.; for Conversion (%): testosterone to DHT
T1 construct: 3xFLAG; expressed in transfected cells; host or cells: HEK293 (Human Embryonic Kidney 293)
T1 sequence (P31213 1-254): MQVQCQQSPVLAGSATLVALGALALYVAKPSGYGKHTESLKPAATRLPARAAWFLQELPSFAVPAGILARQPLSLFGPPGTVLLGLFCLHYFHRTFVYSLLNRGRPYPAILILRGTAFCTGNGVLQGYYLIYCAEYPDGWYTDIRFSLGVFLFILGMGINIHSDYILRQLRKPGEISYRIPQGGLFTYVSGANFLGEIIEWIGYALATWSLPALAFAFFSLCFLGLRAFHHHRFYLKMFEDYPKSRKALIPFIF
Description: In order to examine the effect of inhibiting 5α-reductase activity, the ratio of [^14C]testosterone-to-[^14C]dihydrotestosteron conversion in Human Embryonic Kidney 293(HEK293)-5αR2 cells was measured. HEK293 cells transfected with plasmid p3×FLAG-CMV™-5αR2 were added to a 24-well plate at a density of 2.5×10^5cells/well and cultured (Park et al., 2003, J. Dermatological Science. Vol. 31, pp. 91-98). The next day, the medium was replaced with a fresh medium containing an enzyme substrate and an inhibitor. As the substrate of the medium, 0.05 μCi [^14C]testosterone (Amersham Pharmacia Biotech, UK) was used.
In order to measure the degree of inhibition of 5α-reductase activity, thioredoxin was added to the cells which were then incubated in a 5% CO2 incubator at 37° C. for 2 hours. At the same time, a medium containing no thioredoxin was used as a negative, and a medium containing finasteride was used as a positive control. Next, the culture medium was collected, and steroid was extracted with 800 μl of ethyl acetate. The upper organic solvent layer was separated and dried, and the remaining material was dissolved in 50 μl of ethyl acetate and developed on silica plastic sheet kieselgel 60 F254 using ethyl acetate-hexane (1:1) as a developing solvent.
The plastic sample was dried in air, and the amount of isotopes was measured using a Vas system. Specifically, the dried plastic sheet together with an X-ray film was placed in a Vas cassette, and after 1 week, the amounts of the testosterone and dihydrotestosterone (DHT) isotopes were measured, and then the percent conversion and the percent inhibition were measured using the following equations 1 and 2, respectively.
Conversion (%)=radioactivity in the DHT region/total radioactivity×100
Inhibition (%)=(conversion of control−conversion of sample)/conversion of control×100

fibroblasts = experiment: Stimulation of collagen biosynthesis (procollagen type (I) ELISA); conditions: 24 hours; relative to control = 100%; TGF-beta 10 ng/ml
Description: The effect of thioredoxin of the present invention on the stimulation of collagen biosynthesis was measured in comparison with TGF-beta.
First, fibroblasts were seeded into a 24-well plate at a density of 10^5cells/well and cultured in serum-free DMEM medium for 24 hours to a confluence of about 90%. Then, the cells were treated with each of a solution of thioredoxin of the present invention and 10 ng/ml of TGF-beta dissolved in serum-free medium and incubated in a CO2 incubator for 24 hours. The supernatants of the cell cultures were collected and the amount of procollagen therein was measured using a procollagen type (I) ELISA kit. The values of collagen synthesis (%) in Table 8 are expressed as percentages relative to the control taken as 100%.

human keratinocytes = experiment: Stimulation of keratinocyte differentiation (cornified envelope protein, absorbance 340 nm); conditions: 5 days culture; thioredoxin 5 ppm; low-calcium negative control = 100
Description: In order to examine the effect of thioredoxin on the stimulation of differentiation of keratinocytes, the amount of cornified envelope (CE) protein produced during the differentiation of keratinocytes was measured by absorbance in the following manner.
Specifically, human keratinocytes, isolated from the […] of newborns and primarily cultured, were placed in a culture flask and attached to the bottom. Then, the cells were cultured with a medium containing 5 ppm of thioredoxin for 5 days until the cells reached to a confluence of about 70-80%. At the same time, a low calcium (0.03 mM)-treated group and a high calcium (1.2 mM)-treated group were used as a negative control group and a positive control group, respectively. Then, the cultured cells were harvested and washed with PBS (phosphate buffered saline). Then, the cells were sonicated in 1 ml of 10 mM Tris-HCl (pH 7.4) containing 2% SDS (sodium dodecyl sulfate) and 20 mM DTT (dithiothreitol), boiled and centrifuged. The precipitate was suspended in 1 ml of PBS, and the absorbance at 340 nm was measured. Separately, a portion of the solution following the sonication was taken, and the protein content thereof was measured as a reference for evaluating the degree of differentiation of the cells.

Inhibition (%) ([1]; relative to conversion of control)	Compound	Conversion (%) [1] [%]	Collagen synthesis (%) (fibroblasts)	Degree (%) of differentiation of keratinocytes (human keratinocytes) [%]
	CC(C)(C)NC(=O)[C@H]1CC[C@H]2[C@@H]3CC[C@H]4NC(=O)C=C[C@]4(C)[C@H]3CC[C@]12C [Positive control, finasteride, reference compound]	27.6		
	TGF-β [reference compound]		183.5	
60.8	Thioredoxin	15.9	196.2	295
